Values quoted from earlier work, collected in PMC8258280 (Virologica Sinica, 2021).

Test system: SARS-CoV 3CL^pro
Details: read-out: IC50 against SARS-CoV 3CL^pro

## O=c1cc(-c2ccc(O)c(-c3c(O)cc(O)c4c(=O)cc(-c5ccc(O)cc5)oc34)c2)oc2cc(O)cc(O)c12 [amentoflavone]
  IC50: 8.3 µM
